The source of these data is patent US8426420B2, “Heterocyclic pyrazole-carboxamidesas P2Y12 antagonists” (Sanofi, priority 2007, dated 2013).

SMILES strings stand for the structures.

The test system of this assay is human platelet rich plasma. The assay can be described thus: Inhibition of human platelet aggregation, 96-well assay. It counts as cell-based. On the procedure: Inhibition of Human Platelet Aggregation
Alternatively to a binding assay which measures a compound's ability to bind to the P2Y12 receptor, the effect on cellular function was also determined. This ability of the compound was evaluated in two platelet aggregation assays: in 96-well plates and with the “Born”-method using single cuvettes.
Whole blood was collected from healthy volunteers using 20 ml syringes containing 2 ml of ACD-A Aqua-Citrat-Dextrose-A, Fresenius). The anticoagulated whole blood was transferred into 15 ml polypropylene conical tubes (10 ml per tube). The tubes were centrifuged for 15 minutes at 150×g at RT without using the centrifuge brake. This procedure leads to a pellet of cellular components and a supernatant of platelet rich plasma (PRP). The PRP layer was collected from each tube and pooled for each donor. To avoid carry over of cellular components following centrifugation, approximately 5 ml of PRP was left in the tube. The platelet concentration was determined using a Coulter Counter.
The 15 ml tubes containing the pellet of cellular components were centrifuged again for 10 minutes at 1940×g. This pelleted out most particulate blood constituents remaining, leaving a layer of Platelet Poor Plasma (PPP). The PPP was collected for each donor. The PRP layer, previously set aside, was diluted with PPP to a final concentration of approximately 3×E8 platelets/ml with the PPP.
The human platelet aggregation assay is performed in 96-well plates using a microtiter plate reader (SpectraMax Plus 384 with SoftMax Pro software from Molecular Devices). In the plate 15 μl of test compound at 10× final concentration in NaCl is mixed with 120 μl fresh PRP and incubated for 5 minutes. Following that incubation period, 15 μl of 40 μM ADP is added to the reaction mix. This addition of ADP is sufficient to induce aggregation in the absence of an inhibitor. The plates are then transferred to the microplate reader and aggregation is measured over 20 minutes. The instrument settings include:
Absorbance at 650 nm, run time 20 minutes with readings in 1-minute intervals and 50 seconds shaking between readings all performed at 37° C.

Where [1] appears, read: ADP-induced aggregation, human platelet rich plasma, 96-well plates, AUC of absorbance over 20 minutes.

`O=C(O)CC[C@H](NC(=O)c1cc(OCC(=O)N2CCC[C@H]2C(=O)NC2CCC2)n(-c2ccccc2)n1)C(=O)N1CCN(C(=O)c2ccccc2)CC1` [Example 104, (S)-5-(4-Benzoyl-piperazin-1-yl)-4-({5-[2-((S)-2-cyclobutylcarbamoyl-pyrrolidin-1-yl)-2-oxo-ethoxy]-1-phenyl-1H-pyrazole-3-carbonyl}-amino)-5-oxo-pentanoic acid] showed an IC50 (Homo sapiens, Platelet, 20 min) of 1.23 µM. On the same count and under the same terms, next, `CCCCOC(=O)NC1CCN(C(=O)[C@H](CCC(=O)O)NC(=O)c2cc(OCC(=O)N3CCC[C@H]3C(=O)NC3CCC3)n(-c3ccccc3)n2)C1` (stereo partly drawn) [Example 108, (S)-5-(3-Butoxycarbonylamino-pyrrolidin-1-yl)-4-({5-[2-((S)-2-cyclobutylcarbamoyl-pyrrolidin-1-yl)-2-oxo-ethoxy]-1-phenyl-1H-pyrazole-3-carbonyl}-amino)-5-oxo-pentanoic acid]: 1.88 µM; `CCOC(=O)N1CCN(C(=O)[C@H](CCC(=O)O)NC(=O)c2cc(OCC(=O)N3CCC[C@H]3C(=O)NC3CCC3)n(-c3ccccc3)n2)[C@@H](C)C1` [Example 153, (S)-4-[(S)-4-Carboxy-2-({5-[2-((S)-2-cyclobutylcarbamoyl-pyrrolidin-1-yl)-2-oxo-ethoxy]-1-phenyl-1H-pyrazole-3-carbonyl}-amino)-butyryl]-3-methyl-piperazine-1-carboxylic acid ethyl ester]: 0.43 µM; `O=C(O)CC[C@H](NC(=O)c1cc(OCC(=O)N2CCC[C@H]2C(=O)NC2CCC2)n(-c2ccccc2)n1)C(=O)N1CCN(C(=O)Oc2ccccc2)CC1` [Example 156, 4-[(S)-4-Carboxy-2-({5-[2-((S)-2-cyclobutylcarbamoyl-pyrrolidin-1-yl)-2-oxo-ethoxy]-1-phenyl-1H-pyrazole-3-carbonyl}-amino)-butyryl]-piperazine-1-carboxylic acid phenyl ester]: 1.08 µM. `CCOC(=O)N1CCN(C(=O)[C@H](CCC(=O)O)NC(=O)c2cc(OCC(=O)N3CC(F)(F)C[C@H]3C(=O)NC3CC3)n(-c3ccccc3)n2)CC1` [Example 165, 4-[(S)-4-Carboxy-2-({5-[2-((S)-2-cycloproylcarbamoyl-4,4-difluoro-pyrrolidin-1-yl)-2-oxo-ethoxy]-1-phenyl-1H-pyrazole-3-carbonyl}-amino)-butyryl]-piperazine-1-carboxylic acid ethyl ester] yielded an IC50 under setting [1] of 0.34 µM. Still for that read-out and setting: next, `CCOC(=O)N1CCN(C(=O)[C@H](CCC(=O)O)NC(=O)c2cc(OCC(=O)N3CC(F)(F)C[C@H]3C(=O)NCC3CC3)n(-c3ccccc3)n2)CC1` [Example 166, 4-[(S)-4-Carboxy-2-({5-[2-((S)-2-(cycloproylmethyl-carbamoyl)-4,4-difluoro-pyrrolidin-1-yl)-2-oxo-ethoxy]-1-phenyl-1H-pyrazole-3-carbonyl}-amino)-butyryl]-piperazine-1-carboxylic acid ethyl ester]: 0.08 µM. For the setting “Homo sapiens, Platelet, 20 min”, `CCOC(=O)N1CCN(C(=O)[C@H](CCC(=O)O)NC(=O)c2cc(OCC(=O)N3CCC[C@H]3c3nc(C4CC4)no3)n(-c3ccccc3)n2)CC1` [Example 180, 4-{(S)-4-Carboxy-2-[(5-{2-[(S)-2-(3-cyclopropyl-[1,2,4]oxadiazol-5-yl)-pyrrolidin-1-yl]-2-oxo-ethoxy}-1-phenyl-1H-pyrazole-3-carbonyl)-amino]-butyryl}-piperazine-1-carboxylic acid ethyl ester] showed an IC50 of 0.45 µM. On the same count and under the same terms, for `CCCOC(=O)N1CCN(C(=O)[C@H](CCC(=O)OC)NC(=O)c2cc(OCC(=O)N3CCC[C@H]3C(=O)NC3CCC3)n(-c3ccccc3)n2)CC1` [Example 190, 4-[(S)-2-({5-[2-((S)-2-Cyclobutylcarbamoyl-pyrrolidin-1-yl)-2-oxo-ethoxy]-1-phenyl-1H-pyrazole-3-carbonyl}-amino)-4-methoxycarbonyl-butyryl]-piperazine-1-carboxylic acid propyl ester] the value was 0.18 µM; for `C[C@H](NC(=O)c1cc(OCC(=O)N2CCC[C@H]2C(=O)NC2CCC2)n(-c2ccccc2)n1)C(=O)N1CCN(C(=O)OC2CCC2)CC1` [Example 193, 4-[(S)-2-({5-[2-((S)-2-Cyclobutylcarbamoyl-pyrrolidin-1-yl)-2-oxo-ethoxy]-1-phenyl-1H-pyrazole-3-carbonyl}-amino)-propionyl]-piperazine-1-carboxylic acid cyclobutyl ester], 0.46 µM; for `CCOC(=O)N1CCN(C(=O)[C@H](CCC(=O)OCCCOC)NC(=O)c2cc(OCC(=O)N3CCC[C@H]3C(=O)NC3CCC3)n(-c3ccccc3)n2)CC1` [Example 200, 4-[(S)-2-({5-[2-((S)-2-Cyclobutylcarbamoyl-pyrrolidin-1-yl)-2-oxo-ethoxy]-1-phenyl-1H-pyrazole-3-carbonyl}-amino)-4-(3-methoxy-propoxycarbonyl)-butyryl]-piperazine-1-carboxylic acid ethyl ester], 0.42 µM. As to `CCOC(=O)N1CCN(C(=O)[C@H](CCC(=O)OCCN2CCOCC2)NC(=O)c2cc(OCC(=O)N3CCC[C@H]3C(=O)NC3CCC3)n(-c3ccccc3)n2)CC1` [Example 201, 4-[(S)-2-({5-[2-((S)-2-Cyclobutylcarbamoyl-pyrrolidin-1-yl)-2-oxo-ethoxy]-1-phenyl-1H-pyrazole-3-carbonyl}-amino)-4-(2-morpholin-4-yl-ethoxycarbonyl)-butyryl]-piperazine-1-carboxylic acid ethyl ester], the IC50 (Homo sapiens, Platelet, 20 min) was found to be 0.57 µM. In turn, `CCOC(=O)N1CCN(C(=O)[C@H](CCC(=O)OCC2CCOC2)NC(=O)c2cc(OCC(=O)N3CCC[C@H]3C(=O)NC3CCC3)n(-c3ccccc3)n2)CC1` (stereo partly drawn) [Example 202, 4-[(S)-2-({5-[2-((S)-2-Cyclobutylcarbamoyl-pyrrolidin-1-yl)-2-oxo-ethoxy]-1-phenyl-1H-pyrazole-3-carbonyl}-amino)-4-(tetrahydro-furan-3-ylmethoxycarbonyl)-butyryl]piperazine-1-carboxylic acid ethyl ester] had an IC50 (Homo sapiens, Platelet, 20 min) of 0.84 µM. On the same count and under the same terms, next, `CCOC(=O)N1CCN(C(=O)[C@H](CCC(=O)OCC2(C)COC2)NC(=O)c2cc(OCC(=O)N3CCC[C@H]3C(=O)NC3CCC3)n(-c3ccccc3)n2)CC1` [Example 203, 4-[(S)-2-({5-[2-((S)-2-Cyclobutylcarbamoyl-pyrrolidin-1-yl)-2-oxo-ethoxy]-1-phenyl-1H-pyrazole-3-carbonyl}-amino)-4-(3-methyl-oxetan-3-ylmethoxycarbonyl)-butyryl]-piperazine-1-carboxylic acid ethyl ester]: 0.49 µM. The same measure, in the same setting: for `CCOC(=O)N1CCN(C(=O)[C@H](CCC(=O)OCC2(CC)COC2)NC(=O)c2cc(OCC(=O)N3CCC[C@H]3C(=O)NC3CCC3)n(-c3ccccc3)n2)CC1` [Example 204, 4-[(S)-2-({5-[2-((S)-2-Cyclobutylcarbamoyl-pyrrolidin-1-yl)-2-oxo-ethoxy]-1-phenyl-1H-pyrazole-3-carbonyl}-amino)-4-(3-ethyl-oxetan-3-ylmethoxycarbonyl)-butyryl]-piperazine-1-carboxylic acid ethyl ester] the value was 0.72 µM; for `CCOC(=O)N1CCN(C(=O)[C@H](CCC(=O)OCCC(C)OC)NC(=O)c2cc(OCC(=O)N3CCC[C@H]3C(=O)NC3CCC3)n(-c3ccccc3)n2)CC1` (stereo partly drawn) [Example 205, 4-[(S)-2-({5-[2-((S)-2-Cyclobutylcarbamoyl-pyrrolidin-1-yl)-2-oxo-ethoxy]-1-phenyl-1H-pyrazole-3-carbonyl}-amino)-4-(3-methoxy-butoxycarbonyl)-butyryl]-piperazine-1-carboxylic acid ethyl ester], 0.46 µM; for `CCOC(=O)N1CCN(C(=O)[C@H](CC(C)C)NC(=O)c2cc(OCC(=O)N3CCC[C@H]3C(=O)NC3CCC3)n(-c3ccccc3)n2)CC1` [Example 215, 4-[(S)-2-({5-[2-((S)-2-Cyclobutylcarbamoyl-pyrrolidin-1-yl)-2-oxo-ethoxy]-1-phenyl-1H-pyrazole-3-carbonyl}-amino)-4-methyl-pentanoyl]-piperazine-1-carboxylic acid ethyl ester], 0.95 µM. With `O=C(NCC(=O)N1CCN(C(=O)[C@H]2C[C@@H]2F)CC1)c1cc(OCC(=O)N2CCC[C@H]2C(=O)NC2CCC2)n(-c2ccccc2)n1` [Example 245, 5-[2-((S)-2-Cyclobutylcarbamoyl-pyrrolidin-1-yl)-2-oxo-ethoxy]-1-phenyl-1H-pyrazole-3-carboxylic acid {2-[4-((1R,2S)-2-fluoro-cyclopropanecarbonyl)-piperazin-1-yl]-2-oxo-ethyl}-amide], under “Homo sapiens, Platelet, 20 min”, 0.8 µM corresponded to half-maximal inhibition (IC50). Turning to `O=C(NCC(=O)N1CCN(C(=O)[C@@H]2C[C@H]2c2ccccc2)CC1)c1cc(OCC(=O)N2CCC[C@H]2C(=O)NC2CCC2)n(-c2ccccc2)n1` [Example 246, 5-[2-((S)-2-Cyclobutylcarbamoyl-pyrrolidin-1-yl)-2-oxo-ethoxy]-1-phenyl-1H-pyrazole-3-carboxylic acid {2-oxo-2-[4-((1R,2R)-2-phenyl-cyclopropanecarbonyl)-piperazin-1-yl]-ethyl}-amide], where the note is “Homo sapiens, Platelet, 20 min”, the IC50 was found to be 0.56 µM.

Usually IC50 stands for the concentration needed to halve the response being measured. Higher therefore signals weaker potency.
